Reference: patent US9757484B2 (Otonomy, Inc., priority 2014, dated 2017)

Assays:
[1] = Loss on drying (form anhydrous/hydrate of ciprofloxacin); assay type: physicochemical; details: solid dried 40° C. oven 24 hours, then 125° C. oven one hour; weight loss due to 125° C.
Experimental: To assess the form of ciprofloxacin samples described in the present disclosure, a comparison experiment is conducted to evaluate the sample's loss of weight upon heating. […] The conditions and results of the experiment are summarized below:
Experimental Setup—Loss on Drying: • If suspension: Pipette cipro suspension onto filter on vacuum filter flask • Transfer filter/dry powder to 40° C. oven, hold 24 hours • Transfer solid to pre-weighed aluminum pan and weigh solid • Transfer pan to 125° C. oven, hold one hour • Weigh again and determine weight loss due to 125° C.

[2] = Particle size (D90) of ciprofloxacin; assay type: physicochemical
Source text: The final drug product has particle size of D90 of about 25 μm. […] In some embodiments, it is the use of a lower sterilization temperature and homogenization of the suspension during the sterilization process that contributes to the particle size distribution of ciprofloxacin in the suspension, and in the final product.

O=C(O)c1cn(C2CC2)c2cc(N3CCNCC3)c(F)cc2c1=O [Sample 1, Ciprofloxacin]
Weight Loss on Drying [1]: 0.1%
particle size D90 ([2]; listed as Ciprofloxacin free base anhydrous API powder): under 15 μm

O=C(O)c1cn(C2CC2)c2cc(N3CCNCC3)c(F)cc2c1=O [Sample 2, Ciprofloxacin]
Weight Loss on Drying [1]: 11.1%
particle size D90 ([2]; listed as hydrate form): around 60 μm
